According to patent US9078890B2, “Use of koumine and its homologues in preparation of medicament for treatment of autoimmune diseases of involved bones and joints” (priority 2011, dated 2015):
Marks after values point to notes of the source that are not given here.

What was measured:
Type in all cases: in vivo, Wistar rat
[1] = system: serum type II collagen antibody; test: Type II collagen-induced arthritis rat: serum type II collagen antibody (ELISA); conditions: koumine 0.6, 3, 15 mg/kg intragastric once daily 10 days; after intervention finished; dose dependent
Method: (§1) Under aseptic conditions, 10 mg chicken type II collagen protein was fully mixed with 5 ml 10 mM glacial acetic acid solution, and stirred overnight in refrigerator at 4° C. to fully dissolve it. It was mixed with complete Freund's adjuvant in equal volume in ice bath to fully emulsify into an emulsion with a collagen concentration of 1 mg/ml.
(§2) Wistar rats are divided into a modeling group and a false modeling group. After the modeling group rats were narcotized with intraperitoneal injection of pentobarbital, the above emulsion was injected intracutaneously at 3 to 4 positions at back, tail root or the like, 0.3 ml for each, an primary immunity was carried out. After 7 days, a secondary immunity was carried out, the emulsifying agent complete Freund's adjuvant of initial immunity was replaced with incomplete Freund's adjuvant, 0.1 ml the emulsion was injected under sevoflurane inhalation anesthesia wherein the injection position is different from the last time. In false modeling group, the emulsion was replaced with solvent glacial acetic acid solution.
(§3) Successfully modeled rat in the modeling group were randomly divide into 5 groups: low, middle, high-dose koumine treatment group, positive control group, negative control group, 10 rats for each group. […]

[2] = system: type II collagen-induced arthritis rat; test: Type II collagen-induced arthritis rat: thermal hyperalgesia (thermal withdrawal latency); conditions: for Thermal stimulus withdrawal latency, Intervention Day 2: intervention Day 2, 1 hour after administration; for Thermal stimulus withdrawal latency, Intervention Day 4: intervention Day 4, 1 hour after administration; for Thermal stimulus withdrawal latency, Intervention Day 6: intervention Day 6, 1 hour after administration; for Thermal stimulus withdrawal latency, Intervention Day 8: intervention Day 8, 1 hour after administration; for Thermal stimulus withdrawal latency, Intervention Day 10: intervention Day 10, 1 hour after administration
Method: as §1, §2
(§4) Successfully modeled rat in the modeling group were randomly divide into 5 groups: low, middle, high-dose koumine treatment group, positive control group, negative control group, 10 rats for each group. Beginning from Day 21 after modeling, corresponding intervention was carried out as following in 10 days continuously: 0.6, 3, 15 mg/kg koumine were intragastrically administrated to the low, middle, high-dose koumine treatment group respectively, 1 time every day; 1 mg/kg amethopterin was administrated to the positive control group, 1 time every 3 days, equal volume of physiological saline was administrated for the remained days; equal volume of physiological saline was administrated to the negative control group.
1 hour after intragastric administration, the thermal withdrawal latency of each group was determined by the photo-thermal dolorimeter; the mechanical pain threshold of rats of each group was determined by Von-frey electromechanical pain threshold detector, thus the condition of thermal hyperalgesia and mechanical hyperalgesia of rats of each group was observed.

[3] = system: type II collagen-induced arthritis rat; test: Type II collagen-induced arthritis rat: joint pathological change, X-ray; conditions: high dose and middle dose of koumine (15 and 3 mg/kg); 9 days after intervention
Method: as §1, §2, §3

[4] = system: type II collagen-induced arthritis rat; test: Type II collagen-induced arthritis rat: joint pathological change, HE staining and pathological score; conditions: koumine 0.6, 3, 15 mg/kg intragastric; 10 days after intervention
Method: as §1
as §2, with “solution. […]” for “solution.”
The rats of each group were killed 10 days after intervention, the ankle joints of left hind limbs were picked off to conduct HE staining, and the pathological change was observed and scored. […]

[5] = system: type II collagen-induced arthritis rat; test: Type II collagen-induced arthritis rat: condition and body weight; conditions: for Body weight before intervention: from Day 21 after modeling for 10 days
Method: as §1, §2, §4

[6] = koumine 0.6 mg/kg intragastric once daily
[7] = koumine 3 mg/kg intragastric once daily
[8] = koumine 15 mg/kg intragastric once daily
[9] = koumine 0.6 mg/kg intragastric once daily from Day 21
[10] = koumine 3 mg/kg intragastric once daily from Day 21
[11] = koumine 15 mg/kg intragastric once daily from Day 21

SMILES: C=CC12CN(C)C3CC14C(=Nc1ccccc14)C1CC2C3CO1 (stereo not drawn) [Koumine]
- Effect on serum type II collagen antibody level (FIG. 5) [1]: significantly antagonistic effect on type II collagen antibody level increase
- Thermal stimulus withdrawal latency, Before intervention [2, 6]: 7.50 ± 1.34 s
- Thermal stimulus withdrawal latency, Intervention Day 2 [2, 6]: 7.81 ± 1.39 s
- Thermal stimulus withdrawal latency, Intervention Day 4 [2, 6]: 8.42 ± 1.24 s
- Thermal stimulus withdrawal latency, Intervention Day 6 [2, 6]: 10.30 ± 0.73**^★ second
- Thermal stimulus withdrawal latency, Intervention Day 8 [2, 6]: 8.96 ± 0.81 s
- Thermal stimulus withdrawal latency, Intervention Day 10 [2, 6]: 8.62 ± 2.21 s
- Thermal stimulus withdrawal latency, Before intervention [2, 7]: 8.03 ± 1.98 s
- Thermal stimulus withdrawal latency, Intervention Day 2 [2, 7]: 8.07 ± 1.86 s
- Thermal stimulus withdrawal latency, Intervention Day 4 [2, 7]: 9.16 ± 1.18 s
- Thermal stimulus withdrawal latency, Intervention Day 6 [2, 7]: 11.18 ± 2.03**^★ second
- Thermal stimulus withdrawal latency, Intervention Day 8 [2, 7]: 10.40 ± 1.74 s
- Thermal stimulus withdrawal latency, Intervention Day 10 [2, 7]: 11.62 ± 1.21**^★ second
- Thermal stimulus withdrawal latency, Before intervention [2, 8]: 7.68 ± 2.48 s
- Thermal stimulus withdrawal latency, Intervention Day 2 [2, 8]: 9.41 ± 0.68 s
- Thermal stimulus withdrawal latency, Intervention Day 4 [2, 8]: 10.82 ± 1.07 s
- Thermal stimulus withdrawal latency, Intervention Day 6 [2, 8]: 12.98 ± 1.13**^★ second
- Thermal stimulus withdrawal latency, Intervention Day 8 [2, 8]: 13.44 ± 1.72 s
- Thermal stimulus withdrawal latency, Intervention Day 10 [2, 8]: 13.87 ± 1.26**^★ second
- Effect on thermal stimulus withdrawal latency (summary of Table 3) ([2]; koumine 0.6, 3, 15 mg/kg intragastric, dose-effect relationship): can significantly extend the thermal stimulus withdrawal latency
- Joint pathological change, X-ray images (FIG. 8) [3]: relieve the bone destruction of ankle joint
- Scores of pathologic change degree of ankle joints, HE staining (FIGS. 9 and 10) [4]: significantly decrease the scores of pathologic change degree of ankle joints
- Body weight after intervention, Day 7 [5, 9]: 154.6 ± 7.20 g
- Body weight after intervention, Day 14 [5, 9]: 173.1 ± 7.93 g
- Body weight after intervention, Day 21 [5, 9]: 194.1 ± 16.67 g
- Body weight after intervention, Day 31 [5, 9]: 235.8 ± 5.00 g
- Body weight before intervention [5, 6]: 129.9 ± 8.60 g
- Body weight after intervention, Day 7 [5, 10]: 145.1 ± 9.24 g
- Body weight after intervention, Day 14 [5, 10]: 173.7 ± 4.84 g
- Body weight after intervention, Day 21 [5, 10]: 202.3 ± 9.57 g
- Body weight after intervention, Day 31 [5, 10]: 240.2 ± 6.85 g
- Body weight before intervention [5, 7]: 126.5 ± 7.92 g
- Body weight after intervention, Day 7 [5, 11]: 148.7 ± 8.73 g
- Body weight after intervention, Day 14 [5, 11]: 176.9 ± 3.86 g
- Body weight after intervention, Day 21 [5, 11]: 205.1 ± 6.94 g
- Body weight after intervention, Day 31 [5, 11]: 260.3 ± 11.79 g
- Body weight before intervention [5, 8]: 127.8 ± 7.45 g
- Condition of rats (food intake, activity, fur, emaciation) ([5]; koumine 0.6, 3, 15 mg/kg intragastric once daily): can be improved in a dose dependent manner
- Effect on body weight of type II collagen-induced arthritis rats (summary of Table 2) ([5]; koumine 0.6, 3, 15 mg/kg intragastric, robustness-promoting effect on high-dose group): antagonistic effect on body weight reducing
